Data as given in patent US12507703B2, “Methods, devices and compositions for preserving human milk” (The Trustees of Princeton University, priority 2023, dated 2025).
“And” between values parts separate entries of the source, which are not always exact repeats. Equal values may be shown once. Read-outs that look alike come from different tables or passages of the source. Where a SMILES comes first, the peptide text is derived from it.

Tested on: lipase
Test: Lipase/lipolysis assay (EnzChek Lipase Substrate, quenched BODIPY-fatty acid conjugate) on stored human milk; further: test concentration or dose not given here

O=C(c1ccccc1)C(O)c1ccccc1 (stereo not drawn) [Benzoin]
Lipase (RFU): 968.9971 RFU

NCCP(=O)(O)O [2-Aminoethyl Phosphonic Acid]
Lipase (RFU): 863.4665 RFU

COc1cc(O)c2c(c1)O[C@H](c1cc(O)cc(O)c1)CC2=O [Blumeatin]
Lipase (RFU): 847.8117 RFU

NC(COP(=O)(O)O)C(=O)O (racemic) [DL-O-Phosphoserine]
Lipase (RFU): 728.85 RFU

O=C(O)[C@H](O)[C@@H](O)[C@H](O)[C@H](O)CO [D-Gluconic Acid]
Lipase (RFU): 876.4287 RFU

Sorafenib (Tosylate)
Lipase (RFU): 986.7553 RFU

O=C(CO)[C@@H](O)[C@@H](O)[C@H](O)CO [D-Tagatose]
Lipase (RFU): 939.2844 RFU

COc1cc2c(cc1O)C[C@H]1c3c(cc(O)c(OC)c3-2)CCN1C [Boldine]
Lipase (RFU): 931.6237 RFU

CC(C)=CCC[C@](C)(O)[C@H]1CC[C@]2(C)[C@@H]1[C@H](O)C[C@@H]1[C@@]3(C)CC[C@H](O)C(C)(C)[C@@H]3[C@@H](O[C@@H]3O[C@H](CO)[C@@H](O)[C@H](O)[C@H]3O[C@@H]3OC[C@@H](O)[C@H](O)[C@H]3O)C[C@]12C [Notoginsenoside R2]
Lipase (RFU): 955.4855 RFU

CC(=O)N[C@@H](CO)[C@@H](O)[C@H](O)[C@H](O)CO [N-Acetyl-D-Glucosaminitol]
Lipase (RFU): 1055.486 RFU

N[C@H]1CCOC1=O [L-Homoserine Lactone]
Lipase (RFU): 1108.032 RFU

OC[C@H]1O[C@H](O[C@H]2O[C@H](CO)[C@@H](O)[C@H](O)[C@H]2O)[C@H](O)[C@@H](O)[C@@H]1O [D-(+)-Trehalose]
Lipase (RFU): 893.2005 RFU and 909.0228 RFU

COC(=O)[C@]12CCC(C)(C)C[C@H]1C1=CC[C@@H]3[C@@]4(C)CCC(=O)C(C)(C)[C@@H]4CC[C@@]3(C)[C@]1(C)CC2 [Methyl oleanonate]
Lipase (RFU): 912.7431 RFU

COc1ccc([C@@H]2CC(=O)c3c(O)cc(O[C@@H]4O[C@H](CO)[C@@H](O)[C@H](O)[C@H]4O[C@@H]4O[C@@H](C)[C@H](O)[C@@H](O)[C@H]4O)cc3O2)cc1O [Neohesperidin]
Lipase (RFU): 774.0784 RFU

CCCCCCCCCCCCCC(=O)OC[C@H](COP(=O)(O)OCCN)OC(=O)CCCCCCCCCCCCC
Lipase (RFU): 805.4396 RFU

CC1=CC(=O)CC(C)(C)C1=O [Ketoisophorone]
Lipase (RFU): 818.3204 RFU and 1086.358 RFU

CC(C)=CCc1c(O)cc2oc3cc(O)c(O)c(CCC(C)(C)O)c3c(=O)c2c1O [Garcinone C]
Lipase (RFU): 921.9256 RFU

OC[C@H]1O[C@H](OC[C@H]2OC(O)[C@H](O)[C@@H](O)[C@@H]2O)[C@H](O)[C@@H](O)[C@@H]1O (stereo partly drawn) [Isomaltose]
Lipase (RFU): 1074.051 RFU

CCN(Cc1cccc(S(=O)(=O)[O-])c1)c1ccc(C(=C2C=CC(=[N+](CC)Cc3cccc(S(=O)(=O)[O-])c3)C=C2)c2ccc(O)cc2S(=O)(=O)[O-])cc1.[Na+].[Na+] [Fast Green FCF]
Lipase (RFU): 896.2144 RFU

O=C(O)[C@H]1O[C@@H](Oc2c(-c3ccc(O)cc3)oc3cc(O)cc(O)c3c2=O)[C@H](O)[C@@H](O)[C@@H]1O [Kaempferol 3-O-β-D-glucuronide]
Lipase (RFU): 1023.998 RFU

CCCCC/C=C/C/C=C/CCCCCCCC(=O)O [Linolelaidic acid]
Lipase (RFU): 831.2921 RFU

COC(=O)c1cccnc1 [Methyl nicotinate]
Lipase (RFU): 1069.07 RFU and 773.2703 RFU

COc1ccc(C)cc1 [Compound 4-Methylanisole, 4-Methylanisole]
Lipase (RFU): 864.3612 RFU and 916.5396 RFU

O=c1c(O[C@@H]2O[C@H](CO[C@@H]3O[C@H](CO)[C@@H](O)[C@H](O)[C@H]3O)[C@@H](O)[C@H](O)[C@H]2O)c(-c2ccc(O)c(O)c2)oc2cc(O)cc(O)c12 [Quercetin 3-gentiobioside]
Lipase (RFU): 676.8795 RFU

CCCCCC(=O)O [Caproic Acid]
Lipase (RFU): 905.3416 RFU

O=C(CCc1ccc(O)cc1)c1c(O)cc(O[C@@H]2O[C@H](CO)[C@@H](O)[C@H](O)[C@H]2O)cc1O [Trilobatin]
Lipase (RFU): 813.3377 RFU and 1211.862 RFU

COc1cc(/C=C/C(=O)NCC(O)c2ccc(O)cc2)ccc1O (stereo not drawn) [N-Feruloyloctopamine]
Lipase (RFU): 893.4142 RFU

Riboflavin (phosphate sodium)
Lipase (RFU): 760.1592 RFU

CCCCOC(=O)c1ccc(O)cc1 [Butylparaben]
Lipase (RFU): 948.3985 RFU

N[C@@H](CC(=O)O)C(=O)O.[Ca] [Aspartic acid (calcium)]
Lipase (RFU) ((calcium)): 952.0587 RFU and 1027.013 RFU

Xylan
Lipase (RFU): 1273.332 RFU

C=C(C)[C@@H](O)COc1c2ccoc2cc2oc(=O)ccc12 [Pangelin]
Lipase (RFU): 581.7367 RFU

NC(=O)CC[C@@H]1NC(=O)[C@H](Cc2ccccc2)NC(=O)[C@H](Cc2ccc(O)cc2)NC(=O)[C@@H](N)CSSC[C@@H](C(=O)N2CCC[C@H]2C(=O)N[C@@H](CCCN=C(N)N)C(=O)NCC(N)=O)NC(=O)[C@H](CC(N)=O)NC1=O [Vasopressin]
Lipase (RFU): 1150.397 RFU

C[S+](CC[C@H](N)C(=O)[O-])C[C@H]1O[C@@H](n2cnc3c(N)ncnc32)[C@H](O)[C@@H]1O.Cc1ccc(S(=O)(=O)O)cc1.O=S(=O)(O)O.O=S(=O)(O)O (stereo partly drawn)
Lipase (RFU): 726.0141 RFU

Ursolic acid acetate
Lipase (RFU): 811.3971 RFU

C=C[C@]1(C)CC[C@@H](C(=C)C)C[C@H]1C(=C)C [β-Elemene]
Lipase (RFU): 1099.979 RFU

C[C@H](CCC(=O)NCCS(=O)(=O)O)[C@H]1CC[C@H]2[C@@H]3[C@@H](O)C[C@@H]4C[C@H](O)CC[C@]4(C)[C@H]3CC[C@]12C.O.O [Tauroursodeoxycholate (dihydrate)]
Lipase (RFU): 1204.528 RFU

O=P(O)(O)O[C@H]1O[C@H](CO)[C@@H](O)[C@H](O)[C@@H]1O [D-Mannose-1-Phosphate]
Lipase (RFU): 1121.007 RFU

COC(=O)c1ccc(OC)cc1 [Methyl anisate]
Lipase (RFU): 1101.708 RFU and 911.2014 RFU

CN(CC(=O)O)C(=N)NP(=O)(O)O [Phosphocreatine]
Lipase (RFU): 915.1867 RFU

Oc1cc(O)c2c(c1)O[C@H](c1ccc(O)c(O)c1)[C@H](O)[C@H]2c1c(O)cc(O)c2c1O[C@H](c1ccc(O)c(O)c1)[C@H](O)C2 [Procyanidin B2]
Lipase (RFU): 808.3168 RFU

Cn1cc(C(N)=O)ccc1=O [Nudifloramide]
Lipase (RFU): 993.1021 RFU

O=C(CO)[C@@H](O)[C@H](O)[C@@H](O)CO [L-Sorbose]
Lipase (RFU): 1197.031 RFU

C[C@@H]1NC(=O)N[C@@H]1CCCCCC(=O)O [D-Desthiobiotin]
Lipase (RFU): 791.1157 RFU

c1cncc(C2=NCCC2)c1 [Myosmine]
Lipase (RFU): 909.737 RFU

COc1cc(/C=C/C(=O)NCCc2c[nH]c3ccc(O)cc23)ccc1O [N-Feruloylserotonin]
Lipase (RFU): 1060.876 RFU

O=c1cc(O)c2ccccc2o1 [Compound 4-Hydroxycoumarin, 4-Hydroxycoumarin]
Lipase (RFU): 929.4704 RFU

CC1(C)CCC[C@]2(C)[C@H]3CC(=O)O[C@]3(C)CC[C@@H]12 [Sclareolide]
Lipase (RFU): 845.6458 RFU

O=C(/C=C/c1ccc(O)cc1)c1ccc(O[C@@H]2O[C@H](CO)[C@@H](O)[C@H](O)[C@H]2O)cc1O [Neoisoliquiritin]
Lipase (RFU): 789.3461 RFU

C=C1CC[C@H]2O[C@]2(C)CC[C@@H]2[C@@H]1CC2(C)C [Caryophyllene oxide]
Lipase (RFU): 891.7497 RFU and 923.1149 RFU

OC[C@H]1O[C@@H](Oc2cc(O)cc(/C=C/c3ccc(O)c(O)c3)c2)[C@H](O)[C@@H](O)[C@@H]1O [Astringin]
Lipase (RFU): 1052.825 RFU

Cc1cc(O)c2c(c1)C(=O)c1cccc(O[C@@H]3O[C@H](CO)[C@@H](O)[C@H](O)[C@H]3O)c1C2=O [Chrysophanol 8-O-glucoside]
Lipase (RFU): 988.4419 RFU

COC(=O)[C@@]1(C)CC[C@]2(C(=O)O)CC[C@]3(C)C(=CC[C@@H]4[C@@]5(C)C[C@H](O)[C@H](O[C@@H]6OC[C@@H](O[C@@H]7O[C@H](CO)[C@@H](O)[C@H](O)[C@H]7O)[C@H](O)[C@H]6O)[C@@](C)(CO)[C@@H]5CC[C@]43C)[C@@H]2C1 [Esculentoside A]
Lipase (RFU): 755.0304 RFU

NC(=O)C1=CN([C@@H]2O[C@H](COP(=O)([O-])OP(=O)([O-])OC[C@H]3O[C@@H](n4cnc5c(N)ncnc54)[C@H](O)[C@@H]3O)[C@@H](O)[C@H]2O)C=CC1.[Na+].[Na+] [NADH (disodium salt)]
Lipase (RFU): 996.9696 RFU

CC(=O)N[C@@H](C)C(=O)O [Ac-Ala-OH]
Lipase (RFU): 1189.332 RFU

Cc1ccc(C=O)cc1 [p-Tolualdehyde]
Lipase (RFU): 1029.761 RFU

NC(N)=O [Urea]
Lipase (RFU): 934.3458 RFU and 864.3039 RFU

Adenine (hemisulfate)
Lipase (RFU): 842.2125 RFU

OC[C@H]1O[C@@H](Oc2cc3c(O)cc(O)cc3[o+]c2-c2cc(O)c(O)c(O)c2)[C@H](O)[C@@H](O)[C@@H]1O.[Cl-] [Delphinidin 3-glucoside (chloride)]
Lipase (RFU): 843.0852 RFU

O=C1O[C@H](CO)[C@@H](O)[C@H]1O [D-Ribonolactone]
Lipase (RFU): 702.8507 RFU

COc1cc([C@H]2OC[C@@H]3C(c4cc(OC)c(O)c(OC)c4)OC[C@H]23)ccc1O (single isomer, unassigned; (+)) [(+)-Medioresinol]
Lipase (RFU): 1166.732 RFU

O=C(O)CC(O)C(=O)O (racemic) [D,L-Malic Acid]
Lipase (RFU): 781.9881 RFU

Oc1cc(O)c2c(c1)O[C@@]1(c3ccc(O)c(O)c3)Oc3cc(O)c4c(c3[C@@H]2[C@H]1O)O[C@H](c1ccc(O)c(O)c1)[C@H](O)[C@H]4c1c(O)cc(O)c2c1O[C@H](c1ccc(O)c(O)c1)[C@H](O)C2 [Cinnamtannin B-1]
Lipase (RFU): 1061.374 RFU

C[C@H](CCC(=O)O)[C@H]1CC[C@H]2[C@@H]3CC[C@H]4C[C@@H](O)CC[C@]4(C)[C@H]3CC[C@]12C [Isoallolithocholic acid]
Lipase (RFU): 881.405 RFU

(−)-Limonene
Lipase (RFU): 914.6466 RFU and 836.6929 RFU

CC(O)CO (stereo not drawn) [1,2-Propanediol]
Lipase (RFU): 1150.168 RFU

NCC(=O)N1CCC[C@H]1C(=O)O [H-Gly-Pro-OH] (H-Gly-Pro-OH)
Lipase (RFU): 952.5324 RFU

NC(=O)[C@@H]1CCCN1C(=O)[C@H](Cc1ccccc1)NC(=O)[C@@H]1CCCN1C(=O)[C@@H](N)Cc1ccc(O)cc1 [Morphiceptin] (H-YPFP-NH2)
Lipase (RFU): 1251.045 RFU

Xanthan gum
Lipase (RFU): 873.106 RFU
